Each compound was assayed against WDR5 (Homo sapiens, UniProt P61964) (assay: Screening of putative WDR5 degraders by Western blot in MV4;11 and/or MIAPACA2 cells). Conditions: summary of screening, FIGS. 6-10.
Type: cell-based
Set-up: After WDR5 degrader treatment, cells were collected and lysed; endogenous in cells; host or cells: MV4;11 and/or MIAPACA2
Method: MV4;11 cells were treated with DMSO or indicated compounds at 0.1 μM and 0.5 μM for 18 hours. […]. MIAPACA2 cells were treated with DMSO or indicated compounds at 0.5 μM and 1.0 μM for 18 hours.
MIAPACA2 cells were treated with DMSO or indicated compounds at 0.1 μM and 0.5 μM for 18 hours.
MIAPACA2 cells were treated with DMSO or indicated compounds at 0.5 μM and 1.0 μM or at 1.0 μM and 10 μM for 18 hours.
MV4;11 cells were treated with DMSO or indicated compounds at 0.1 μM and 1.0 μM for 18 hours.
WDR5 degraders were dissolved in DMSO and DMSO with no degraders was used as the control. 1×10^6 MV4;11 cells or 1×10^5 MIAPACA2 or 2×10^5 Hela cells were seeded in 2 mL medium for each well in […].
For prescreening of all the compounds, each test compound was added to the medium at indicated concentrations. After 18 h treatment, cells were collected.
After WDR5 degrader treatment, cells were collected and lysed. Total cell lysates were used for western blot. The following primary antibodies were used: WDR5 (Santa Cruz), vinculin (Cell Signaling Technology), tubulin (Cell Signaling Technology), GAPDH (Santa Cruz). Blots were imaged using fluorescence-labeled secondary antibodies on ChemiDoc™ Imaging Systems.

Row | SMILES | effective degradation of WDR5 in MV4;11 and/or MIAPACA2 cells
1 | Cc1ncsc1-c1ccc(CNC(=O)[C@@H]2C[C@@H](O)CN2C(=O)[C@@H](NC(=O)COCCOCC(=O)N2CCN(c3ncc(-c4cc(NC(=O)c5ccc(F)cc5C(F)(F)F)c(N5C[C@@H](C)N(C)[C@@H](C)C5)cc4F)cn3)CC2)C(C)(C)C)cc1 [XF078-101, (2S,4R)-1-((S)-2-(2-(2-(2-(4-(5-(2-fluoro-5-(4-fluoro-2-(trifluoromethyl)benzamido)-4-((3S,5R)-3,4,5-trimethylpiperazin-1-yl)phenyl)pyrimidin-2-yl)piperazin-1-yl)-2-oxoethoxy)ethoxy)acetamido)-3,3-dimethylbutanoyl)-4-hydroxy-N-(4-(4-methylthiazol-5-yl)benzyl)pyrrolidine-2-carboxamide] | able to effectively degrade WDR5
2 | Cc1ncsc1-c1ccc(CNC(=O)[C@@H]2C[C@@H](O)CN2C(=O)[C@@H](NC(=O)CCCCC(=O)N2CCN(Cc3cnc(N4CC=C(c5cc(NC(=O)c6c[nH]c(=O)cc6C(F)(F)F)c(N6C[C@@H](C)N(C)[C@@H](C)C6)cc5F)CC4)nc3)CC2)C(C)(C)C)cc1 [XF078-143, N-(4-fluoro-5-(1-(5-((4-(6-(((S)-1-((2S,4R)-4-hydroxy-2-((4-(4-methylthiazol-5-yl)benzyl)carbamoyl)pyrrolidin-1-yl)-3,3-dimethyl-1-oxobutan-2-yl)amino)-6-oxohexanoyl)piperazin-1-yl)methyl)pyrimidin-2-yl)-1,2,3,6-tetrahydropyridin-4-yl)-2-((3S,5R)-3,4,5-trimethylpiperazin-1-yl)phenyl)-6-oxo-4-(trifluoromethyl)-1,6-dihydropyridine-3-carboxamide] | able to effectively degrade WDR5
3 | C[C@@H]1CN(c2ccc(-c3cc(CN4CCN(CCNC(=O)CCOCCNc5cccc6c5C(=O)N(C5CCC(=O)NC5=O)C6=O)CC4)ccc3F)cc2NC(=O)c2c[nH]c(=O)cc2C(F)(F)F)C[C@H](C)N1C (stereo partly drawn) [XF078-25, N-(5′-((4-(2-(3-(2-((2-(2,6-dioxopiperidin-3-yl)-1,3-dioxoisoindolin-4-yl)amino)ethoxy)propanamido)ethyl)piperazin-1-yl)methyl)-2′-fluoro-4-((3S,5R)-3,4,5-trimethylpiperazin-1-yl)-[1,1′-biphenyl]-3-yl)-6-oxo-4-(trifluoromethyl)-1,6-dihydropyridine-3-carboxamide] | able to effectively degrade WDR5
4 | C[C@@H]1CN(c2ccc(-c3cc(CN4CCN(CCNC(=O)CCCCCNc5cccc6c5C(=O)N(C5CCC(=O)NC5=O)C6=O)CC4)ccc3F)cc2NC(=O)c2c[nH]c(=O)cc2C(F)(F)F)C[C@H](C)N1C (stereo partly drawn) [XF078-22, N-(5′-((4-(2-(6-((2-(2,6-dioxopiperidin-3-yl)-1,3-dioxoisoindolin-4-yl)amino)hexanamido)ethyl)piperazin-1-yl)methyl)-2′-fluoro-4-((3S,5R)-3,4,5-trimethylpiperazin-1-yl)-[1,1′-biphenyl]-3-yl)-6-oxo-4-(trifluoromethyl)-1,6-dihydropyridine-3-carboxamide] | able to effectively degrade WDR5
5 | Cc1ncsc1-c1ccc(CNC(=O)[C@@H]2C[C@@H](O)CN2C(=O)[C@@H](NC(=O)CCOCCC(=O)N2CCN(Cc3cnc(N4CC=C(c5cc(NC(=O)c6c[nH]c(=O)cc6C(F)(F)F)c(N6C[C@@H](C)N(C)[C@@H](C)C6)cc5F)CC4)nc3)CC2)C(C)(C)C)cc1 [XF078-133, N-(4-fluoro-5-(1-(5-((4-(3-(3-(((S)-1-((2S,4R)-4-hydroxy-2-((4-(4-methylthiazol-5-yl)benzyl)carbamoyl)pyrrolidin-1-yl)-3,3-dimethyl-1-oxobutan-2-yl)amino)-3-oxopropoxy)propanoyl)piperazin-1-yl)methyl)pyrimidin-2-yl)-1,2,3,6-tetrahydropyridin-4-yl)-2-((3S,5R)-3,4,5-trimethylpiperazin-1-yl)phenyl)-6-oxo-4-(trifluoromethyl)-1,6-dihydropyridine-3-carboxamide] | able to effectively degrade WDR5
6 | Cc1ncsc1-c1ccc(CNC(=O)[C@@H]2C[C@@H](O)CN2C(=O)[C@@H](NC(=O)COCCOCCOCCOCCOCC(=O)N2CCN(Cc3cnc(N4CC=C(c5cc(NC(=O)c6c[nH]c(=O)cc6C(F)(F)F)c(N6C[C@@H](C)N(C)[C@@H](C)C6)cc5F)CC4)nc3)CC2)C(C)(C)C)cc1 [XF078-139, N-(4-fluoro-5-(1-(5-((4-((S)-19-((2S,4R)-4-hydroxy-2-((4-(4-methylthiazol-5-yl)benzyl)carbamoyl)pyrrolidine-1-carbonyl)-20,20-dimethyl-17-oxo-3,6,9,12,15-pentaoxa-18-azahenicosanoyl)piperazin-1-yl)methyl)pyrimidin-2-yl)-1,2,3,6-tetrahydropyridin-4-yl)-2-((3S,5R)-3,4,5-trimethylpiperazin-1-yl)phenyl)-6-oxo-4-(trifluoromethyl)-1,6-dihydropyridine-3-carboxamide] | able to effectively degrade WDR5
7 | Cc1ncsc1-c1ccc(CNC(=O)[C@@H]2C[C@@H](O)CN2C(=O)[C@@H](NC(=O)CCCCCCCC(=O)N2CCN(Cc3cnc(N4CC=C(c5cc(NC(=O)c6c[nH]c(=O)cc6C(F)(F)F)c(N6C[C@@H](C)N(C)[C@@H](C)C6)cc5F)CC4)nc3)CC2)C(C)(C)C)cc1 [XF078-146, N-(4-fluoro-5-(1-(5-((4-(9-(((S)-1-((2S,4R)-4-hydroxy-2-((4-(4-methylthiazol-5-yl)benzyl)carbamoyl)pyrrolidin-1-yl)-3,3-dimethyl-1-oxobutan-2-yl)amino)-9-oxononanoyl)piperazin-1-yl)methyl)pyrimidin-2-yl)-1,2,3,6-tetrahydropyridin-4-yl)-2-((3S,5R)-3,4,5-trimethylpiperazin-1-yl)phenyl)-6-oxo-4-(trifluoromethyl)-1,6-dihydropyridine-3-carboxamide] | able to effectively degrade WDR5
8 | C[C@@H]1CN(c2cc(F)c(-c3cnc(N4CCN(C(=O)CCOCCOCCOCCOCCNc5cccc6c5C(=O)N(C5CCC(=O)NC5=O)C6=O)CC4)nc3)cc2NC(=O)c2ccc(F)cc2C(F)(F)F)C[C@H](C)N1C (stereo partly drawn) [XF078-126, N-(5-(2-(4-(1-((2-(2,6-dioxopiperidin-3-yl)-1,3-dioxoisoindolin-4-yl)amino)-3,6,9,12-tetraoxapentadecan-15-oyl)piperazin-1-yl)pyrimidin-5-yl)-4-fluoro-2-((3S,5R)-3,4,5-trimethylpiperazin-1-yl)phenyl)-4-fluoro-2-(trifluoromethyl)benzamide] | able to effectively degrade WDR5
9 | Cc1ncsc1-c1ccc(CNC(=O)[C@@H]2C[C@@H](O)CN2C(=O)[C@@H](NC(=O)CCCCCCC(=O)N2CC=C(c3cc(NC(=O)c4c[nH]c(=O)cc4C(F)(F)F)c(N4C[C@@H](C)N(C)[C@@H](C)C4)cc3F)CC2)C(C)(C)C)cc1 [XF078-43, N-(4-fluoro-5-(1-(8-(((S)-1-((2S,4R)-4-hydroxy-2-((4-(4-methylthiazol-5-yl)benzyl)carbamoyl)pyrrolidin-1-yl)-3,3-dimethyl-1-oxobutan-2-yl)amino)-8-oxooctanoyl)-1,2,3,6-tetrahydropyridin-4-yl)-2-((3S,5R)-3,4,5-trimethylpiperazin-1-yl)phenyl)-6-oxo-4-(trifluoromethyl)-1,6-dihydropyridine-3-carboxamide] | able to effectively degrade WDR5
10 | Cc1ncsc1-c1ccc(CNC(=O)[C@@H]2C[C@@H](O)CN2C(=O)[C@@H](NC(=O)CCOCCOCCOCCOCCC(=O)N2CCN(Cc3cnc(N4CC=C(c5cc(NC(=O)c6c[nH]c(=O)cc6C(F)(F)F)c(N6C[C@@H](C)N(C)[C@@H](C)C6)cc5F)CC4)nc3)CC2)C(C)(C)C)cc1 [XF078-138, N-(4-fluoro-5-(1-(5-((4-((S)-18-((2S,4R)-4-hydroxy-2-((4-(4-methylthiazol-5-yl)benzyl)carbamoyl)pyrrolidine-1-carbonyl)-19,19-dimethyl-16-oxo-4,7,10,13-tetraoxa-17-azaicosanoyl)piperazin-1-yl)methyl)pyrimidin-2-yl)-1,2,3,6-tetrahydropyridin-4-yl)-2-((3S,5R)-3,4,5-trimethylpiperazin-1-yl)phenyl)-6-oxo-4-(trifluoromethyl)-1,6-dihydropyridine-3-carboxamide] | able to effectively degrade WDR5
11 | Cc1ncsc1-c1ccc(CNC(=O)[C@@H]2C[C@@H](O)CN2C(=O)[C@@H](NC(=O)COCCOCCOCC(=O)N2CCN(c3ncc(-c4cc(NC(=O)c5ccc(F)cc5C(F)(F)F)c(N5C[C@@H](C)N(C)[C@@H](C)C5)cc4F)cn3)CC2)C(C)(C)C)cc1 [XF078-103, (2S,4R)-1-((S)-2-(tert-butyl)-14-(4-(5-(2-fluoro-5-(4-fluoro-2-(trifluoromethyl)benzamido)-4-((3S,5R)-3,4,5-trimethylpiperazin-1-yl)phenyl)pyrimidin-2-yl)piperazin-1-yl)-4,14-dioxo-6,9,12-trioxa-3-azatetradecanoyl)-4-hydroxy-N-(4-(4-methylthiazol-5-yl)benzyl)pyrrolidine-2-carboxamide] | able to effectively degrade WDR5

— US12110295B2, “WD40 repeat domain protein 5 (WDR5) degradation/disruption compounds and methods of use” (Icahn School of Medicine at Mount Sinai, priority 2018, dated 2024)
